Columns and labels:
MRC5 = assay: MTS proliferation assay; type: cell-based; conditions: MRC5, 72 h
How it was run: (§1)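 Four-point treatment (0.3–10 μM final) ran 72 h in complete medium, with the compound-containing addition holding no more than 5% DMSO. Metabolic activity was then developed with MTS reagent over 3 h and quantified by absorbance (492 nm).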

Jily = assay: MTS proliferation assay; type: cell-based; conditions: 72 h
How it was run: as §1

[1] = Hoechst 33342 nuclear staining; type: cell-based; conditions: for Hoechst 33342 nuclear staining score, H460: H460 cells; for Hoechst 33342 nuclear staining score, HeLa: HeLa cells; for Hoechst 33342 nuclear staining score, Jily: Jily cells; for Hoechst 33342 nuclear staining score, Jurkat: Jurkat cells; for Hoechst 33342 nuclear staining score, MRC5: MRC5 cells; as to Hoechst 33342 nuclear staining score, PBLs: key: 0: no activity; 1: weak activity comprising less than 50% of the cells; 2: strong activity comprising more than 50% of the cells;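 as to all read-outs here: apoptotic nuclei scored 0 none 1 weak under 50% of cells 2 strong over 50% of cells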
How it was run: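 Cells were plated in 96 well tissue culture plates in 80 μl complete medium, with 3-5*10^3 cells per well for adherent lines and 8-10*10^3 for suspension lines. Adherent cells spread for 24 h before treatment, while suspension cells were treated right after seeding. Compounds were added in 20 μl complete medium containing max 5% DMSO.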

HeLa = assay: MTS proliferation assay; type: cell-based, human; conditions: 72 h
How it was run: as §1

Jurkat = assay: MTS proliferation assay; type: cell-based, human; conditions: 72 h
How it was run: as §1

Row | Compound | IC50 (MRC5) | IC50 (Jily) | Hoechst 33342 nuclear staining score, H460 ([1]; conc 0.1) | Hoechst 33342 nuclear staining score, H460 ([1]; conc 0.3) | Hoechst 33342 nuclear staining score, H460 ([1]; conc 1) | Hoechst 33342 nuclear staining score, H460 ([1]; conc 3) | Hoechst 33342 nuclear staining score, HeLa ([1]; conc 0.1) | Hoechst 33342 nuclear staining score, HeLa ([1]; conc 0.3) | Hoechst 33342 nuclear staining score, HeLa ([1]; conc 1) | Hoechst 33342 nuclear staining score, HeLa ([1]; conc 3) | Hoechst 33342 nuclear staining score, Jily ([1]; conc 0.1) | Hoechst 33342 nuclear staining score, Jily ([1]; conc 0.3) | Hoechst 33342 nuclear staining score, Jily ([1]; conc 1) | Hoechst 33342 nuclear staining score, Jily ([1]; conc 3) | Hoechst 33342 nuclear staining score, Jurkat ([1]; conc 0.1) | Hoechst 33342 nuclear staining score, Jurkat ([1]; conc 0.3) | Hoechst 33342 nuclear staining score, Jurkat ([1]; conc 1) | Hoechst 33342 nuclear staining score, Jurkat ([1]; conc 3) | Hoechst 33342 nuclear staining score, MRC5 ([1]; conc 0.1) | Hoechst 33342 nuclear staining score, MRC5 ([1]; conc 0.3) | also measured
1 | COc1cc(-c2cc(-c3cccnc3)cn2S(=O)(=O)c2ccc(C(F)(F)F)cc2)cc(OC)c1OC [Example 82] | > 1000 nM | > 1000 nM | 0 | 0 | 2 (strong activity comprising more than 50% of the cells) | 2 (strong activity comprising more than 50% of the cells) | 0 | 0 | 2 (strong activity comprising more than 50% of the cells) | 2 (strong activity comprising more than 50% of the cells) | 0 | 0 | 1 (weak activity comprising less than 50% of the cells) | 2 (strong activity comprising more than 50% of the cells) | 0 | 0 | 2 (strong activity comprising more than 50% of the cells) | 2 (strong activity comprising more than 50% of the cells) | 0 | 0 | Hoechst 33342 nuclear staining score, MRC5 ([1]; conc 1): 1 (weak activity comprising less than 50% of the cells); Hoechst 33342 nuclear staining score, MRC5 ([1]; conc 3): 1 (weak activity comprising less than 50% of the cells); Hoechst 33342 nuclear staining score, PBLs ([1]; conc 0.1): 0; Hoechst 33342 nuclear staining score, PBLs ([1]; conc 0.3): 0; Hoechst 33342 nuclear staining score, PBLs ([1]; conc 1): 0; Hoechst 33342 nuclear staining score, PBLs ([1]; conc 3): 0; IC50 (HeLa): > 1000 nM; IC50 (Jurkat): < 1000 nM
2 | COc1cc(-c2cc(-c3cccnc3)cn2S(=O)(=O)c2ccc(C(C)(C)C)cc2)cc(OC)c1OC [Example 83] | > 1000 nM | > 1000 nM | 0 | 0 | 0 | 0 | 0 | 0 | 0 | 0 | 0 | 0 | 0 | 0 | 0 | 0 | 0 | 0 | 0 | 0 | Hoechst 33342 nuclear staining score, MRC5 ([1]; conc 1): 0; Hoechst 33342 nuclear staining score, MRC5 ([1]; conc 3): 0; Hoechst 33342 nuclear staining score, PBLs ([1]; conc 0.1): 0; Hoechst 33342 nuclear staining score, PBLs ([1]; conc 0.3): 0; Hoechst 33342 nuclear staining score, PBLs ([1]; conc 1): 0; Hoechst 33342 nuclear staining score, PBLs ([1]; conc 3): 0; IC50 (HeLa): > 1000 nM; IC50 (Jurkat): > 1000 nM

From patent publication US7612064B2, “Sulfopyrroles” (Takeda Pharmaceutical Company Limited, priority 2003, dated 2009)
